Columns and labels:
[1] = system: Rattus norvegicus; assay: Suppression of growth hormone production in GHRH-challenged sc dosed Sprague-Dawley rat plasma administered GHRH at 1 to 8 hrs post dose and measured 5 mins after each GHRH challenge by sandwich ELISA; type: functional, organism-based; settings: dose mg/kg 0.1-10, time hrs 1-8
[2] = Oral bioavailability in Sprague-Dawley rat at 10 mg/kg; type: ADME, organism-based; settings: in vivo
[3] = AUC (0 to infinity) in Sprague-Dawley rat at 10 mg/kg, po; type: ADME, organism-based; parameters: time infinity, route oral, dose 10 mg/kg; settings: in vivo
[4] = Cmax in Sprague-Dawley rat at 10 mg/kg, po; type: ADME, organism-based; parameters: route oral, dose 10 mg/kg; settings: in vivo
[5] = Volume of distribution at steady state in Sprague-Dawley rat at 5 mg/kg, iv; type: ADME, organism-based; settings: in vivo, read-out: Vdss
[6] = Half life in Sprague-Dawley rat at 5 mg/kg, iv; type: ADME, organism-based; settings: in vivo
[7] = Half life in rat liver microsomes; type: ADME, Microsome
[8] = Observed clearance in Sprague-Dawley rat at 5 mg/kg, iv; type: ADME, organism-based; settings: in vivo
[9] = target: Cytochrome P450 3A4 (Homo sapiens, UniProt P08684); assay: Inhibition of CYP3A4 (unknown origin); type: ADME
[10] = Half life in human liver microsomes; type: ADME, Microsome
[11] = target: Cytochrome P450 2C19 (Homo sapiens, UniProt P33261); assay: Inhibition of CYP2C19 (unknown origin); type: ADME
[12] = target: Cytochrome P450 2C9 (Homo sapiens, UniProt P11712); assay: Inhibition of CYP2C9 (unknown origin); type: ADME
[13] = target: Voltage-gated inwardly rectifying potassium channel KCNH2 (Homo sapiens, UniProt Q12809); assay: Inhibition of human ERG
[14] = target: Somatostatin receptor type 5 (Homo sapiens, UniProt P35346); assay: Agonist activity at human SST5
[15] = target: Somatostatin receptor type 1 (Homo sapiens, UniProt P30872); assay: Agonist activity at human SST1
[16] = target: Somatostatin receptor type 3 (Homo sapiens, UniProt P32745); assay: Agonist activity at human SST3
Sequence of Somatostatin receptor type 3 (P32745 whole entry): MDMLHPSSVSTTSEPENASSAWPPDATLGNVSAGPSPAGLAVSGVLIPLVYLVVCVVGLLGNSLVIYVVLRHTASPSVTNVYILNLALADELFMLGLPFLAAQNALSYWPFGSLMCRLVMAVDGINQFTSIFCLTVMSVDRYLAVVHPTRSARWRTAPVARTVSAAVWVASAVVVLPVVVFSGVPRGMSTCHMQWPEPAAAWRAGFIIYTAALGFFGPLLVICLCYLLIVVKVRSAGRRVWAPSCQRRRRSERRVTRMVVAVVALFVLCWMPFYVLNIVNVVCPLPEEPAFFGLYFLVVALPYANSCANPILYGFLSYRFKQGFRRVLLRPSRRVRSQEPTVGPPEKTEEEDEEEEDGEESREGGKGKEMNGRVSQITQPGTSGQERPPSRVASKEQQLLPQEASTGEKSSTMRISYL

Sequence of Cytochrome P450 3A4 (P08684 whole entry): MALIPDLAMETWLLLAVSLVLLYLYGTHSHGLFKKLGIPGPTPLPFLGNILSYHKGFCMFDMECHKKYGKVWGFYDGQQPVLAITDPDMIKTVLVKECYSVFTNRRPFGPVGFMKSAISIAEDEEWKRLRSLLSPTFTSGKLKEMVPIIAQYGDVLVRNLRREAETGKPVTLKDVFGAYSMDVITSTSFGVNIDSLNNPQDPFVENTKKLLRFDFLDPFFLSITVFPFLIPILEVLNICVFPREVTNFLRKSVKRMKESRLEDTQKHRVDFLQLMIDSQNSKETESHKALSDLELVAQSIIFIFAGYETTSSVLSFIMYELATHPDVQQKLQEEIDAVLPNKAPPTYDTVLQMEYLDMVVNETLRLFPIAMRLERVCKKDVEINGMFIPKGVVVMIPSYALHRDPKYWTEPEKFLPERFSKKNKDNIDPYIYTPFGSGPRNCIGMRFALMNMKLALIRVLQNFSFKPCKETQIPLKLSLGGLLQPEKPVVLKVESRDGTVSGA
Sequence of Somatostatin receptor type 1 (P30872 whole entry): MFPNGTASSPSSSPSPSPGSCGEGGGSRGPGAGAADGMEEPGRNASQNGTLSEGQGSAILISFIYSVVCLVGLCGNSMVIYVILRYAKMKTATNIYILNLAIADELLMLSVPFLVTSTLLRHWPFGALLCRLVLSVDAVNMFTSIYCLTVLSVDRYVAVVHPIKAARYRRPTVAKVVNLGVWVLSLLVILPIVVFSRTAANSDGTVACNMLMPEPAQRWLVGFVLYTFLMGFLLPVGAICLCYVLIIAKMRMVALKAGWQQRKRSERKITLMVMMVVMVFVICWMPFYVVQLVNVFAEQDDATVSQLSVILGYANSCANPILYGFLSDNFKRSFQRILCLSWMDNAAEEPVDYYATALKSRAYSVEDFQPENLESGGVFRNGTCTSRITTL
Sequence of Voltage-gated inwardly rectifying potassium channel KCNH2 (Q12809 whole entry): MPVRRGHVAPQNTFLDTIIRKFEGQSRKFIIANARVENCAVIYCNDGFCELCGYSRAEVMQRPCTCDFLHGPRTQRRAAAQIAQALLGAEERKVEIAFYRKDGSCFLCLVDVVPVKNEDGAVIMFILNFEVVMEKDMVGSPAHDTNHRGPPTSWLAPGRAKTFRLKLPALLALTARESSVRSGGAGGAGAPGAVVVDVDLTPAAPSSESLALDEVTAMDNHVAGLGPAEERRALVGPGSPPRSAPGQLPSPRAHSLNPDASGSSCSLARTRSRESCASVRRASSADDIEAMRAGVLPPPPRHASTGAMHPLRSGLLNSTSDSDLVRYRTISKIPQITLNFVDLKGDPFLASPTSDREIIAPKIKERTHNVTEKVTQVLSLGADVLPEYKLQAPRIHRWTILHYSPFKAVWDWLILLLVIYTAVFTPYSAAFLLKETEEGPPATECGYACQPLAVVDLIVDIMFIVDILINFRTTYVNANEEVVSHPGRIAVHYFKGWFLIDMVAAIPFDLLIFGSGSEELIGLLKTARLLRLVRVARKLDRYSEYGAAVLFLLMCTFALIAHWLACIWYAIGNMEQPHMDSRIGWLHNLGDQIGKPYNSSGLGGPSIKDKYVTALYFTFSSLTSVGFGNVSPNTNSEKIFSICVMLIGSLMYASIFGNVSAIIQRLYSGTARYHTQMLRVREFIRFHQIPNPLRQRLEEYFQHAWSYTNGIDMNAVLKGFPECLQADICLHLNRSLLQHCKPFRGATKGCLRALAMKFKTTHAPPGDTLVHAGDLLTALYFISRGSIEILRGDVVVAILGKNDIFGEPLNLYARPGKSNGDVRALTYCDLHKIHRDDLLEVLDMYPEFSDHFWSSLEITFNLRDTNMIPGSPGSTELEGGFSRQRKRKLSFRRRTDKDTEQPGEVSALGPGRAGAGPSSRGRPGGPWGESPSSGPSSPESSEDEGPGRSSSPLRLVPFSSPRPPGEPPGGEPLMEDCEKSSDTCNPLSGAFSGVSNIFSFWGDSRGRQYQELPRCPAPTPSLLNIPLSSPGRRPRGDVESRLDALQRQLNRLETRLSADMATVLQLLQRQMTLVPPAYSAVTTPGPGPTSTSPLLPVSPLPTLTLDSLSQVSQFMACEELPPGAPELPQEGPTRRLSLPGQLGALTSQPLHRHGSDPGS
Sequence of Cytochrome P450 2C9 (P11712 whole entry): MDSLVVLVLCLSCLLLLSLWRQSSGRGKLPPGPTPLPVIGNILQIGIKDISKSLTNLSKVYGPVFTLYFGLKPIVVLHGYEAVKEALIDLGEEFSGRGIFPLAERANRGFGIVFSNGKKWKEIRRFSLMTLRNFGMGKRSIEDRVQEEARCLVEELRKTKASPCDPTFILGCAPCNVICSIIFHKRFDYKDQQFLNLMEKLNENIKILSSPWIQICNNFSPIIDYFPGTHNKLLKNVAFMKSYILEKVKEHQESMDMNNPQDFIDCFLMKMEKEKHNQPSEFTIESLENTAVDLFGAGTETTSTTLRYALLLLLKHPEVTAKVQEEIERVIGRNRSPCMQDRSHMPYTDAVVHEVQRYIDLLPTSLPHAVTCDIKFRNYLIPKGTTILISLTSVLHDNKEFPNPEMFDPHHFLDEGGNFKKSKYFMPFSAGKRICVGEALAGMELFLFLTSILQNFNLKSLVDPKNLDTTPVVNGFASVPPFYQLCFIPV
Sequence of Somatostatin receptor type 5 (P35346 whole entry): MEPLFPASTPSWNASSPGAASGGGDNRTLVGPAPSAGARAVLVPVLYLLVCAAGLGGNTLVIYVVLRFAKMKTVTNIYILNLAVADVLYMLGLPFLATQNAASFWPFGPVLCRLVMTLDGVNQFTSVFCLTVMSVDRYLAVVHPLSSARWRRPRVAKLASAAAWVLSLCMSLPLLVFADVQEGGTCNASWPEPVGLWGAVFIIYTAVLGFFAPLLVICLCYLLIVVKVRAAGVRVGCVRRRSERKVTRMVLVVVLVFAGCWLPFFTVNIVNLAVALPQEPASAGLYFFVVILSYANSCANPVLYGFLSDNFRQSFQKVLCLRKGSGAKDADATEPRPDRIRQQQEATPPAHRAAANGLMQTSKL
Sequence of Cytochrome P450 2C19 (P33261 whole entry): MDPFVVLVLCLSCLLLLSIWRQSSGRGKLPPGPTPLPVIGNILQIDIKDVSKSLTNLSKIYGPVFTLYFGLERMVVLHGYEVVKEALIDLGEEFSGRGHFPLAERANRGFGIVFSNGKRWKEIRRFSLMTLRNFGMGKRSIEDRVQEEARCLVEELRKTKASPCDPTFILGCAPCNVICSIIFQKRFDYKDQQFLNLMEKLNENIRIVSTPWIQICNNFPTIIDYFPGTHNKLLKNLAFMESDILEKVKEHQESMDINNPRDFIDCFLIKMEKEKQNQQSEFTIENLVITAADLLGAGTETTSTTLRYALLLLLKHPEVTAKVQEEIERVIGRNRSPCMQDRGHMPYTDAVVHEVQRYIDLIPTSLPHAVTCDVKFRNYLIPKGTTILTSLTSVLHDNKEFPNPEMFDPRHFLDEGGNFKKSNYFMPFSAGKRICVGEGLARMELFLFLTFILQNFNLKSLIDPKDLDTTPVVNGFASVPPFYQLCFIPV

Cc1cc(Cl)cc(-c2cnc3ncn(-c4cc(O)cc(F)c4)c(=O)c3c2CN(C)C[C@@H]2CCCN2)c1
Activity [1]: Dose-dependent effect
bioavailability [2]: 14%
AUC(0-inf) [3]: 329 ng·h/mL
Cmax [4]: 43 ng/mL
Vd [5]: 11.9 L/kg
half-life [6]: 204 min
half-life [7]: 23 min
clearance [8]: 73 mL/min/kg
IC50 [9]: > 10000 nM
half-life [10]: 35 min
IC50 [11]: > 10000 nM
IC50 [12]: > 10000 nM
IC50 [13]: 3160 nM
EC50 [14]: > 1000 nM
EC50 [15]: 316 nM
EC50 [16]: 7.94 nM
